Tests used:
Experiment in all cases: ITC
[1] = tested on: Aai full-length NAD+-I (nadA) riboswitch, 100-mer (RNA, riboswitch) GGCUGCAACAUCCCCGUGGGUUGGACGGCGAAAGCCGUAGCGAAUCCACUGCAGCCUGUAUGGCUUUCAACAUCCCCGUCCGCGAAAGCGGACUGAAGGC
[2] = tested on: Aca domain I split construct (dom I; 28-mer + 22-mer) (RNA, riboswitch) GGGCGCAACAUCCCCGCCGGUUGGGCGC/GCGCAGUGAACCGGCUGCGUCC; conditions: 100 mM NaCl, 20 mM MgCl2, 0.10 M Na-HEPES pH 7.0, 10 °C, 1:1 model, apparent
[3] = tested on: Aca domain II split construct (dom II; 28-mer + 20-mer) (RNA, riboswitch) GCUUUCAACAUCCCCGUCCCGGGCGGAG/CUCCGCAGUGGACUGAAGGC; conditions: 100 mM NaCl, 20 mM MgCl2; 0.10 M Na-HEPES pH 7.0, 10 °C; ligand in syringe 0.40–0.63 mM
[4] = 100 mM NaCl, 20 mM MgCl2, 0.10 M Na-HEPES pH 7.0, 10 °C, 1:1 model, apparent

| KD [1, 4] [µM] | KD [2] [µM] | binding [3] | KD ([1]; K+ (KCl replacing NaCl), KCl-containing ITC buffer, 10 °C, no significant change from Na+) [µM] | KD ([2]; error printed ± 7.1) [µM] | Compound |
| --- | --- | --- | --- | --- | --- |
| 59.7 ± 2.2 | 55.5 ± 3.6 | no |  |  | NC(=O)C1=CN([C@@H]2O[C@H](COP(=O)(O)OP(=O)(O)OC[C@H]3O[C@@H](n4cnc5c(N)ncnc54)[C@H](O)[C@@H]3O)[C@@H](O)[C@H]2O)C=CC1 |
| 31.5 ± 1.5 | 24.6 ± 8.4 | no | 18.2 ± 2.1 |  | NC(=O)c1ccc[n+]([C@@H]2O[C@H](COP(=O)(O)OP(=O)(O)OC[C@H]3O[C@@H](n4cnc5c(N)ncnc54)[C@H](O)[C@@H]3O)[C@@H](O)[C@H]2O)c1 |
| 30.2 ± 1.2 |  |  |  | 21.9 ± 8.4 | NC(=O)c1ncn([C@@H]2O[C@H](COP(=O)(O)OP(=O)(O)OC[C@H]3O[C@@H](n4cnc5c(N)ncnc54)[C@H](O)[C@@H]3O)[C@@H](O)[C@H]2O)n1 |
| 9.7 ± 1.1 | 11.1 ± 0.6 |  |  |  | Nc1ncnc2c1ncn2[C@@H]1O[C@H](COP(=O)(O)OP(=O)(O)O)[C@@H](O)[C@H]1O |
| 11.0 ± 3.5 |  |  |  |  | Nc1ncnc2c1ncn2[C@@H]1O[C@H](COP(=O)(O)OP(=O)(O)OP(=O)(O)O)[C@@H](O)[C@H]1O |

— PMC10702441 (2023)
